Results as given in patent US7794994B2 (Kemeta, LLC, priority 2001, dated 2010).

Experiments:
[1] = test system: S-ADH from X. autotrophicus strain Py2; experiment: Secondary alcohol dehydrogenase NADH oxidation spectrophotometric assay; assay type: biochemical, Xanthobacter autotrophicus strain Py2; conditions: for Relative S-ADH Activity (%) X. Py2, ketone reduction: ketone reduction rates, pH 6.2, 2.5 mM substrate, 0.2 mM NADH, acetone = 100; for Relative S-ADH Activity (%) X. Py2, alcohol oxidation: alcohol oxidation rates, pH 7.6, 2.5 mM substrate, 0.2 mM NAD+, 2-propanol = 100, NA = no activity detected; for specific activity, alcohol oxidation: at pH 7.8
Procedure: (§1) Assays were performed in 2 mL quartz cuvettes and contained NAD(H) (0.2 mM), potassium phosphate buffer (25 mM), and a source of enzyme (cell-free extracts, column fractions, or purified enzyme) in a total reaction volume of 1 mL at pH 6.2 ([…]) at 30° C. Assays were pre-incubated for 1.5 min. at 30° C. with all assay components except substrate. Assays were initiated by addition of substrate (2.5 mM) and monitored over time by measuring the change in absorbance at 340 nm (∈340 of 6.22 mM^−1·cm^−1 for NADH).
Data analysis. Kinetic constants (Km and Vmax) were calculated by fitting initial rate data to the Michaelis-Menten equation and using the software KaleidaGraph Fourth Edition, (Synergy Software, Reading, Pa.).

[2] = test system: S-ADH from strain IP-1; experiment: S-ADH spectrophotometric assay, partially purified S-ADH of isolate IP-1; assay type: biochemical, isopropanol-grown bacterial strain TDCC IP-1; conditions: for Relative S-ADH Activity (%) IP-1, ketone reduction: ketone reduction rates, pH 6.2, 2.5 mM substrate, 0.2 mM NADH, acetone = 100; for Relative S-ADH Activity (%) IP-1, alcohol oxidation: alcohol oxidation rates, pH 7.6, 2.5 mM substrate, 0.2 mM NAD+, 2-propanol = 100, NA = no activity detected
Procedure: Protein purifications. […] Secondary alcohol dehydrogenase (S-ADH) from X. autotrophicus Py2 was purified via the following protocol. Cell-free extracts (380 mL) of isopropanol-grown X. autotrophicus Py2 (150 g) were prepared as described above, and applied to a 5×15 cm column of DEAE-Sepharose FAST FLOW (Diethylaminoethyl cross-linked agarose bead material; Catalog number 17-0709-10, Amersham Pharmacia Biotech, Piscataway, N.J.)) equilibrated in buffer A (25 mM MOPS (3-(N-morpholino)propanesulfonic acid), pH 7.6, 5% glycerol, 1 mM dithiothreitol) at a flow rate of 10 mL/min. After loading, the column was washed with […] buffer A and developed with a 2400 mL linear gradient of 90-290 mM KCl in buffer A. Fractions containing S-ADH activity were pooled and dialyzed against 2 L of 25 mM potassium phosphate (pH 6.2) containing 5% glycerol (buffer B) for 16 h at 4° C. […] After washing the column with 30 mL of buffer B, S-ADH was eluted with 20 mL of buffer A containing 10 mM NAD^+. Fractions containing S-ADH were then dialyzed against 2 L of buffer A for 16 h at 4° C., concentrated by ultrafiltration (using a YM30 ultrafiltration membrane; catalog no. 13722, from Millipore, Bedford, Mass.), and frozen in liquid nitrogen. Partially purified S-ADH from bacterial screen cultures was prepared as follows: cell-free extracts from 1 to 5 g of cell paste were prepared as described above and applied to a 5 mL HI TRAP Q column (quaternary, tetraethylammonium, cross-linked agarose bead material for use as an anion exchange matrix; catalog number 17-1153-01, Amersham Pharmacia Biotech) equilibrated in 100 mM MOPS, pH 7.6, containing 5% (v/v) glycerol (buffer C). The column was washed with 10 mL buffer C and developed with a 100 mL linear gradient of 0 to 100 mM NaCl in buffer C. Fractions containing S-ADH activity were pooled, concentrated to 0.5 mL using a 30 kDa MWCO (“molecular weight cut-off”) centrifugal membrane (catalog number UFV4BTK25, Millipore), and stored at −80° C.
as §1

[3] = test system: S-ADH from M. vaccae JOB-5; experiment: S-ADH spectrophotometric assay, propane-grown M. vaccae JOB-5; assay type: biochemical, Mycobacterium vaccae strain JOB-5; conditions: for Relative S-ADH Activity (%) JOB 5, ketone reduction: ketone reduction rates, pH 6.2, 2.5 mM substrate, 0.2 mM NADH, acetone = 100; for Relative S-ADH Activity (%) JOB 5, alcohol oxidation: alcohol oxidation rates, pH 7.6, 2.5 mM substrate, 0.2 mM NAD+, 2-propanol = 100, NA = no activity detected
Procedure: as §1

[4] = target: T1, S-ADH from T. brockii (Thermoanaerobacter brockii, UniProt P14941); experiment: S-ADH spectrophotometric assay, T. brockii S-ADH; assay type: biochemical, Thermoanaerobium brockii; conditions: for Relative S-ADH Activity (%) T. brockii, ketone reduction: ketone reduction rates, pH 6.2, 2.5 mM substrate, 0.2 mM NADPH, acetone = 100
T1 sequence (P14941 1-352): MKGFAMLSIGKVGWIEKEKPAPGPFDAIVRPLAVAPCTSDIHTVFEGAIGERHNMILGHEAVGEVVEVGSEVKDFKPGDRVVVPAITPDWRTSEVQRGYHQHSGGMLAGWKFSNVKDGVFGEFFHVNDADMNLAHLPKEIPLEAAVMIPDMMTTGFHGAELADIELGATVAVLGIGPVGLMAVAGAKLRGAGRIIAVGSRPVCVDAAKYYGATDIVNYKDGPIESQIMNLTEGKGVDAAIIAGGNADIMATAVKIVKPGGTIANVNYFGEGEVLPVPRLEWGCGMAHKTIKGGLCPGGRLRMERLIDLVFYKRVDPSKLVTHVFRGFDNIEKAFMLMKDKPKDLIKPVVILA
Procedure: […] Assays were pre-incubated for 1.5 min. at 30° C. with all assay components except substrate. Assays were initiated by addition of substrate (2.5 mM) and monitored over time by measuring the change in absorbance at 340 nm (∈340 of 6.22 mM^−1·cm^−1 for NADH).

[5] = test system: S-ADH from C. boidinii; experiment: S-ADH spectrophotometric assay, C. boidinii S-ADH; assay type: biochemical, Candida boidinii; conditions: pH 7.6, 5 mM substrate; for Relative S-ADH Activity (%) C. boidinii, ketone reduction: ketone reduction rates, 0.2 mM NADH, acetone = 100; for Relative S-ADH Activity (%) C. boidinii, alcohol oxidation: alcohol oxidation rates, 0.2 mM NAD+, 2-propanol = 100
Procedure: Assays were performed in 2 mL quartz cuvettes and contained NAD(H) (0.2 mM), potassium phosphate buffer (25 mM), and a source of enzyme (cell-free extracts, column fractions, or purified enzyme) in a total reaction volume of 1 mL at pH 6.2 ([…]) at 30° C. Assays were pre-incubated for 1.5 min. at 30° C. with all assay components except substrate. […]

[6] = target: T2, acetone carboxylase coupled to β-hydroxybutyrate dehydrogenase (Xanthobacter versatilis, UniProt Q8RM03+Q8RM04); experiment: Acetone carboxylase coupled to NADH oxidation spectrophotometric assay; assay type: biochemical, X. autotrophicus strain Py2; conditions: alternative compounds in coupled enzyme system
T2 construct: host or cells: X. autotrophicus strain Py2 (native organism; enzyme obtained from Prof; S. A. Ensign / purified as previously published)
T2 sequence (Q8RM03 1-776): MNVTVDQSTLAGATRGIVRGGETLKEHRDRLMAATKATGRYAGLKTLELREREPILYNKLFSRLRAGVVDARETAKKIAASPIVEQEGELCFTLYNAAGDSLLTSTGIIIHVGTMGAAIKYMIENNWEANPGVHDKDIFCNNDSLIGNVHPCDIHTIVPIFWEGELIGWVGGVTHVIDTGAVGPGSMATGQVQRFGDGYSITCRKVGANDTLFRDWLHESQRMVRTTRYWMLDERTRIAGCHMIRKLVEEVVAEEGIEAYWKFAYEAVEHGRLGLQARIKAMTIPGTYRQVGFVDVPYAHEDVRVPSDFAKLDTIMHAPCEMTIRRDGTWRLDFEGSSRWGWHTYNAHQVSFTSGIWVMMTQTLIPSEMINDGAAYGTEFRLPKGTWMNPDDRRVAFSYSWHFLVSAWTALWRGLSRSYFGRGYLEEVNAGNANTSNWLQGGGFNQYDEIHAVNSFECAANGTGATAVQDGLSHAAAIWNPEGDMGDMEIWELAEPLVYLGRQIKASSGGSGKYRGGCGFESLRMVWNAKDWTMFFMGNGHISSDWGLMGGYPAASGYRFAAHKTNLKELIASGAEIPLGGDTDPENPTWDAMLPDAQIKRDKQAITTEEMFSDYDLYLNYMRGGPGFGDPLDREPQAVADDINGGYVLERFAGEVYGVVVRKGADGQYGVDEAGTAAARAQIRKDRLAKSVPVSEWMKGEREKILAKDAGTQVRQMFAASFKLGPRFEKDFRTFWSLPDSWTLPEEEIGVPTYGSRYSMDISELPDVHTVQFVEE
T2 sequence (Q8RM04 1-717): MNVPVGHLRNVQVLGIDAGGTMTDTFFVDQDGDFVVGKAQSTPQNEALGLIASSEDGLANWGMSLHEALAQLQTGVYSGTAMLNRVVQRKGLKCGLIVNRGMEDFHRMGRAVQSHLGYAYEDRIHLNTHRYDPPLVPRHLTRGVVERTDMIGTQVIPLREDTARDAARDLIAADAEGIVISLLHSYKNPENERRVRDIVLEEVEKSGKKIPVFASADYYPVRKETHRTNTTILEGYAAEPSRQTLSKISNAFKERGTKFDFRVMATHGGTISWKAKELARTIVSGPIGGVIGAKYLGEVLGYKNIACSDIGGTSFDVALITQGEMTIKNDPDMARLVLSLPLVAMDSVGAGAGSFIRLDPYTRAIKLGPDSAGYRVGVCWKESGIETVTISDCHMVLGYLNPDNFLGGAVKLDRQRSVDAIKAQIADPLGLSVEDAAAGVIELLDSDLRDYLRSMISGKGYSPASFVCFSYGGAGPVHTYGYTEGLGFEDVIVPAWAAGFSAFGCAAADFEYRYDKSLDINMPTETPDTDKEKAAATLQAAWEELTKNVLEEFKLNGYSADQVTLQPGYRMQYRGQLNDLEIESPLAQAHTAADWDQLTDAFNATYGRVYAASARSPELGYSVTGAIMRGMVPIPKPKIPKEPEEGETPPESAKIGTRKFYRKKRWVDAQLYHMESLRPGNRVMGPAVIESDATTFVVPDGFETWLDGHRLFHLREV
T2 sequence (Q8RM02 2-168 partner limits assumed): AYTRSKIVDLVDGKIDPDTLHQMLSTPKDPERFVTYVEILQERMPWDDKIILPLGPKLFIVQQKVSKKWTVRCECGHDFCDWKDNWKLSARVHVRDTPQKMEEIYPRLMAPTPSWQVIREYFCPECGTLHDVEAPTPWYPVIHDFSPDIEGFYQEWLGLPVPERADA
Procedure: Assays were performed in 2 mL (1 cm path length) quartz cuvettes that had been modified by fusing a serum bottle-style quartz top (7×13 mm at mouth), allowing the cuvettes to be sealed with a red rubber serum stopper. […] The addition of […] (3 U) and NADH (0.2 mM) allowed acetoacetate formation to be coupled to the oxidation of NADH. […] The reaction was monitored by measuring the decrease in absorbance at 340 nm (∈340 of 6.22 mM^−·cm^−1 for NADH) over time in an Agilent Technologies (Palo Alto, Calif.) model 8453 UV-Visible Spectroscopy System containing a thermostat-controlled cell holder at 30° C.

## NC(=O)C1=CN([C@@H]2O[C@H](COP(=O)(O)OP(=O)(O)OC[C@H]3O[C@@H](n4cnc5c(N)ncnc54)[C@H](OP(=O)(O)O)[C@@H]3O)[C@@H](O)[C@H]2O)C=CC1 [NADPH, nicotinamide adenine dinucleotide phosphate, reduced form]
[1]; data not shown
  ability to serve as electron donor in acetone reduction assays: not

## CCC(=O)CC [3-Pentanone]
[1]
  Relative S-ADH Activity (%) X. Py2, ketone reduction: 180%
[2]
  Relative S-ADH Activity (%) IP-1, ketone reduction: 5%
[3]
  Relative S-ADH Activity (%) JOB 5, ketone reduction: 26%
[4]
  Relative S-ADH Activity (%) T. brockii, ketone reduction: 49%
[5]
  Relative S-ADH Activity (%) C. boidinii, ketone reduction: 60%

## CCCCO [1-Butanol]
[1]
  Relative S-ADH Activity (%) X. Py2, alcohol oxidation: 7%
  specific activity, alcohol oxidation: 1.7±0.2 μmol alcohol oxidized min^−1mg^−1 protein
[2]
  Relative S-ADH Activity (%) IP-1, alcohol oxidation: 2%
[3]
  Relative S-ADH Activity (%) JOB 5, alcohol oxidation: 10%
[5]
  Relative S-ADH Activity (%) C. boidinii, alcohol oxidation: 6%
[6]
  activity as substrate and inhibition of acetone carboxylation activity: not active nor did they inhibit acetone carboxylation activity

## CCCCCO [1-Pentanol]
[1]
  specific activity, alcohol oxidation: No activity
[5]
  Relative S-ADH Activity (%) C. boidinii, alcohol oxidation: 8%

## CO [methanol]
[1]; saturating acetone, alcohol at about 13-fold over the Km value for acetone, data not shown
  inhibition of S-ADH activity: no inhibition was observed

## CCCC(C)O (stereo not drawn) [2-Pentanol]
[1]
  Relative S-ADH Activity (%) X. Py2, alcohol oxidation: 157%
[2]
  Relative S-ADH Activity (%) IP-1, alcohol oxidation: 18%
[3]
  Relative S-ADH Activity (%) JOB 5, alcohol oxidation: 68%
[4]; alcohol oxidation rates, pH 7.6, 2.5 mM substrate, 0.2 mM NADP+, 2-propanol = 100, NA = no activity detected
  Relative S-ADH Activity (%) T. brockii, alcohol oxidation: 38%
[5]
  Relative S-ADH Activity (%) C. boidinii, alcohol oxidation: 22%

## CCCC(C)=O [2-Pentanone]
[1]
  Relative S-ADH Activity (%) X. Py2, ketone reduction: 198%
[2]
  Relative S-ADH Activity (%) IP-1, ketone reduction: 44%
[3]
  Relative S-ADH Activity (%) JOB 5, ketone reduction: 185%
[4]
  Relative S-ADH Activity (%) T. brockii, ketone reduction: 59%
[5]
  Relative S-ADH Activity (%) C. boidinii, ketone reduction: 16%

## NC(=O)C1=CN([C@@H]2O[C@H](COP(=O)(O)OP(=O)(O)OC[C@H]3O[C@@H](n4cnc5c(N)ncnc54)[C@H](O)[C@@H]3O)[C@@H](O)[C@H]2O)C=CC1 [NADH, nicotinamide adenine dinucleotide, reduced form]
[1]; acetone at fixed saturating concentration, read-out: Km for NADH
  Km: 5.1 ± 0.4 µM
[1]; data not shown
  ability to serve as electron donor in acetone reduction assays: could serve as the electron donor
